Results from patent US11896560B2, “Cannabinoid dosing regime for dermatitis and inflammatory skin conditions” (Botanix Pharmaceuticals LTD, priority 2018, dated 2024).

Columns and labels:
[1] = system: sensitized guinea-pigs; details: intravenous administration; cited from earlier work
[2] = system: anandamide; details: in vitro; cited from earlier work
[3] = target: human vanilloid receptor type 1 (VR1) (Homo sapiens, UniProt Q8NER1); details: in vitro; cited from earlier work
[4] = Skin permeation of CBD formulation in Franz-type diffusion cell; format: in vitro ADME
Protocol: Dermatomed skin from a single donor was mounted in a Franz-type diffusion cell (0.55 cm^2 receptor fluid exposure surface area) and dosed with 5 ul of CBD formulated in an mixture of a volatile solvent (hexylmethyldisiloxane/polymethylsiloxane—93% w/w), and residual solvent (arlamol E—2% w/w) at a concentration of 5.0% (w/w; 35.5 mg/ml). Following dosing, receptor phase samples were collected at 4, 10, 24 and 48 hours; after which the study was terminated.
The residual formulation was removed by tape stripping and the epidermis and dermis separated by blunt dissection. The levels of CBD in the epidermis, dermis, and receptor fluid samples were then analyzed using a bioanalytical method with LC-MS/MS detection.

[5] = system: rats; details: injected into rats; cited from earlier work
[6] = 5.0% w/w CBD formulation, 48-hour period
[7] = 5 ul of 5.0% w/w CBD formulation, over the 48-hour exposure period
[8] = following application of CBD mixture, 48 hours

Chain of human vanilloid receptor type 1 (VR1) (Q8NER1 whole entry, the tested form may be a part): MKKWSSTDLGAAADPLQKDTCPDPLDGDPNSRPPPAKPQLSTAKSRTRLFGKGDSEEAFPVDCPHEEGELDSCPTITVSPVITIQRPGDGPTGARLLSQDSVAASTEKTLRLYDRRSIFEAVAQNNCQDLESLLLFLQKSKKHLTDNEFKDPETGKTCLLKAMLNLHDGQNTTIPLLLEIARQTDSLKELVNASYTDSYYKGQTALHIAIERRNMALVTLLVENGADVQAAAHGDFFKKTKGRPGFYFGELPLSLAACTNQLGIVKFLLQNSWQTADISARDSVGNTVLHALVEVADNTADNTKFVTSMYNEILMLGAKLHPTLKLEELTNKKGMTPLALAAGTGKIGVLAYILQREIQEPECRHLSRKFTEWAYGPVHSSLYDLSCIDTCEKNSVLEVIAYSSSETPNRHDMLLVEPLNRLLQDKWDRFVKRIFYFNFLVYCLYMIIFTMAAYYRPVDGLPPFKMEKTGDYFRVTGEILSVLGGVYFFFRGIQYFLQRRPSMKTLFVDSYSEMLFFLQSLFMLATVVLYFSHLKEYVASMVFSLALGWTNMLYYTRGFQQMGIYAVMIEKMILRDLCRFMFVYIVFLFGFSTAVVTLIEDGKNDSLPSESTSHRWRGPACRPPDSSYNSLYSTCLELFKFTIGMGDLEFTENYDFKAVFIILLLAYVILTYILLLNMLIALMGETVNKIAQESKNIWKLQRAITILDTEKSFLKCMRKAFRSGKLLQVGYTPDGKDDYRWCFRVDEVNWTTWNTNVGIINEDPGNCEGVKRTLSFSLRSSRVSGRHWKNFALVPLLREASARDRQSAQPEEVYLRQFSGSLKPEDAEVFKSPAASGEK

In the case of C=C(C)C1CCC(C)=CC1c1c(O)cc(CCCCC)cc1O (centres unmarked) [CBD, 2-[3-methyl-6-(1-methylethenyl)-2-cyclohexen-1-yl]-5-pentyl-1,3-benzenediol], the “effect on airway obstruction” value [1] is listed as “reduced airway obstruction”, the effect on anandamide [2] is listed as “inhibit” and the “effect on human vanilloid receptor type 1 (VR1)” value [3] is listed as “stimulate”. The “dermal deposition of CBD” value [4, 6] was 4.54 % of the applied dose, the “epidermal deposition of CBD” value [4, 6] was 13.17 % of the applied dose and the “CBD in the receptor phase (skin permeation), amount per area” value [4, 7] was < 278 ng/cm^2. For the same compound, the “CBD in the receptor phase (skin permeation), percent of applied dose” value [4, 7] was “less than 0.081%”, the “dermis concentration per area” value [4, 8] was 8,408 ng/cm^2 and the “dermis concentration per tissue weight” value [4, 8] was 1,933 ng/g of tissue. For the same compound, the “dermis concentration per volume” value [4, 8] was ~1,933 ng/mL and the “effect on cardiac inflammation” value [5] was “attenuated cardiac inflammation”.
